Experimental data: patent publication US9855257B2, “4-alkynyl imidazole derivative and medicine comprising same as active ingredient” (KAKEN PHARMACEUTICAL CO., LTD., priority 2013, dated 2018)

Key:
rat EP4 receptor = target: T1, rat EP4 receptor (Rattus norvegicus, UniProt P43114); assay: Rat EP4 receptor antagonistic action by the reporter assay method; format: cell-based; settings: COS-7 cells expressing rat EP4 receptor, CRE-LUC reporter, PGE2 1×10^−8 mol/L; geometric mean of three cases; read-out: Intensity of EP4 Receptor Antagonistic Activity IC50
T1 construct: its translated region was integrated into the expression vector pShooter (Invitrogen); expressed in transfected cells; host or cells: COS-7 cells (Cercopithecus aethiops kidney), transiently co-transfected with ratEP4-pShooter and a CRE-LUC reporter vector
T1 sequence (P43114 whole entry): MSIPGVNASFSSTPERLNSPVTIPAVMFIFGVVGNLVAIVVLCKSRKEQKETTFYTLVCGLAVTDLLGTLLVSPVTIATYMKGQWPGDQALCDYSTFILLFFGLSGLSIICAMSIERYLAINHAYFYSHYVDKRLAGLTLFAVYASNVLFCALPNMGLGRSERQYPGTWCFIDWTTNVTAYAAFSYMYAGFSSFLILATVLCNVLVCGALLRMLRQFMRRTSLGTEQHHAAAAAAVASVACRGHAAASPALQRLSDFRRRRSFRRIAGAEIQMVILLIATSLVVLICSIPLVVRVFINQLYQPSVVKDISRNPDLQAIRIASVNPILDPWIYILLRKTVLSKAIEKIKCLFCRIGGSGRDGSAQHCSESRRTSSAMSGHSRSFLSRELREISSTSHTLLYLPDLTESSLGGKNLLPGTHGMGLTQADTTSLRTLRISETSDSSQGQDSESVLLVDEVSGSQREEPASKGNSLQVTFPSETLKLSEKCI
Method: Test for Evaluating the Rat EP4 Receptor Antagonistic Action by the Reporter Assay Method
The first step was the cloning of the rat EP4 receptor. Total RNA was prepared from the kidney extracted from rats. With the total RNA used as a template, the rat EP4 receptor gene was cloned by RT-PCR and its translated region was integrated into the expression vector pShooter (Invitrogen) to prepare a rat EP4 receptor expressing vector (ratEP4-pShooter).
In the next step, rat EP4 receptor expressing cells for use in the reporter assay were prepared. COS-7 cells (derived from the kidney of Cercopithecus aethiops) were cultured in Dulbecco's Modified Eagle Medium (DMEM) (supplemented with 10% fetal bovine serum) in a 75-cm^2 cell culture flask. After the cells proliferated to a subconfluent state, the medium was removed and rinsed with phosphate buffered physiological saline (PBS). Trypsin-EDTA and a growth medium were used to recover the cells, which were then centrifuged. The supernatant was removed and the cells were suspended in DMEM. The cell suspension was seeded on a 96-well plate at a density of 2×10^4 cells/100 μL/well and cultured. The DMEM was mixed with Plus reagent, Lipofectamine 2000, the rat EP4 receptor expressing vector (ratEP4-pShooter) and a CRE-LUC reporter vector (CLONTECH) to prepare a transfection solution. Three hours after the seeding of the cells, 50 μL of the medium was removed and 50 μL/well of the transfection solution was added, followed by culture overnight. Negative control cells were prepared using pShooter in place of the receptor expressing vector. The cells were seeded on a 96-well plate for reporter assay and cultured.
The medium on the 96-well plate was removed and a test compound was added in an amount of 50 μL/well. After ca. 30-min culture, a PGE2 solution (2×10^−8 mol/L) was added in an amount of 50 μL/well (final concentration of PGE2: 1×10^−8 mol/L). As a PGE2-free control, there were provided wells to which a test medium had been added in an amount of 50 μL/well. About three hours later, the medium was removed and reporter assay was performed in accordance with the protocol accompanying the Steady-Glo Luciferase Assay System kit. Luminous intensity was measured with a microplate reader (Fusion-FPα, PerkinElmer) and EP4 receptor antagonistic activity (%) was determined by the following calculation formula: EP4 receptor antagonistic activity (%)=[1−(RLU(A,X)−RLU(0))/(RLU(PGE2)−RLU(0))]×100 RLU(A,X): Luminous intensity expressed in relative luminescence units (RLU) for the case where the test compound (A) X (mol/L) and PGE2 10^−8 mol/L were both added; RLU(PGE2): Luminous intensity for the case where only PGE2 10^−8 mol/L was added; RLU(0): Luminous intensity for the case where neither test compound nor PGE2 was added.
In addition, a dose-response curve was plotted from the EP4 receptor antagonistic activities at varying concentrations of each test compound and using the following approximation formula, the IC50 (the concentration of the test compound required to inhibit the PGE2 inducing activity by 50%) was calculated to determine the intensity of the compound's EP4 receptor antagonistic activity. The results are shown in Table 2: Y=Bottom+(Top−Bottom)/{1+10^(Log IC50−Log X)} Bottom: 0 Top: 100 X: Concentration of the test compound (mol/L) Y: EP4 receptor antagonistic activity (%)

[1] = system: Carrageenin Induced Paw Edema in Rats; assay: Anti-inflammatory effect on carrageenin induced paw edema in rats; format: in vivo, rat; settings: Wistar male rats, oral 10 mg/5 mL/kg one hour before carrageenin, paw volume four hours after treatment; means of 5˜8 cases
Method: Test for Evaluating the Anti-Inflammatory Effect on Carrageenin Induced Paw Edema in Rats
The animals were Wistar male rats (7-week old). The paw volume of the right hind leg was measured with a paw volume meter (PLETHYSMOMETER, Ugo Basile Model 7141 or 7150). One hour after orally administering a test compound at a dose of 10 mg/5 mL/kg, a carrageenin treatment group was given a 1 w/v % carrageenin solution and a non-treatment group given distilled water, each administered subcutaneously to the footpad of the right hind leg at a dose of 0.1 mL. Four hours after the treatment with carrageenin (or distilled water), the paw volume was measured and the change in paw volume from the pre-treatment value was calculated. The anti-inflammatory effect of the test compound was confirmed using the percent paw edema suppression (see below) as an indicator. In the present experimental models, Cerecoxib (COX inhibitor already available on the market as an anti-inflammatory/analgesic agent) was used as a positive control.

[2] = system: Carrageenin Induced Hyperalgesia in Rats; assay: Analgesic effect on carrageenin induced hyperalgesia in rats; format: in vivo; settings: Rattus norvegicus, 2 h; SD male rats, oral 10 mg/5 mL/kg six hours after carrageenin, nociceptive threshold (Randall-Selitto) two hours after administration; 5˜7 cases; read-out: Percent Effectiveness
Method: Test for Evaluating Analgesic Effect on Carrageenin Induced Hyperalgesia in Rats
The animals were SD male rats (5-week old). Before treatment with carrageenin (or distilled water), the rats were measured for nociceptive thresholds in their right hind leg by the Randall-Selitto method and divided into a carrageenin treatment group and a non-treatment group to provide uniformity in nociceptive threshold. The carrageenin treatment group was given a 1 w/v % carrageenin solution and the non-treatment group given distilled water, each administered subcutaneously to the footpad of the right hind leg at a dose of 0.1 mL. Five hours after the treatment, the nociceptive thresholds were measured and the individuals with decreased thresholds were selected and grouped such that there was no inter-group difference in threshold. Six hours after the treatment, each test compound was orally administered at a dose of 10 mg/5 mL/kg. The control group was administered 0.5% methylcellulose. Two hours after the administration of the test compound (8 hours after the treatment), the nociceptive threshold was measured. The animals in the test compound group that had nociceptive thresholds greater than [(the mean nociceptive threshold of the control group)+2×standard deviation] were found “effective animals” and the percent effectiveness of each compound was calculated.

[3] = system: Adjuvant Induced Arthritis in Rats; assay: Anti-inflammatory and analgesic effects on adjuvant induced arthritis in rats; format: in vivo, rat; parameters: Percent Effectiveness: scale not given: direction of the effect not stated beside the values; settings: Lewis male rats, oral 0.3 mg/kg once a day, day 9 to day 17 after adjuvant; for Percent paw edema suppression: measured at day 18, means of 8˜10 cases; for Percent Effectiveness: pain threshold at day 18, 8˜10 cases
Method: Test for Evaluating Anti-Inflammatory and Analgesic Effects on Adjuvant Induced Arthritis in Rats
The animals were Lewis male rats (6-week old). An adjuvant solution (2 mg/mL) was administered intradermally to the footpad of the left hind leg of each animal at a dose of 0.1 mL to create an arthritis model. Paw volume was measured with a paw volume meter (PLETHYSMOMETER, Ugo Basile Model 7141). For evaluation of pain thresholds, a probe fitted to the sensor site of Pressure Application Measurement (PAM, Ugo Basile Model 38500) was used to turn the foot sole of a rat upward (dorsiflexion) until it gave an indication of pain or discomfort (vocalization) and the load being applied was measured. Eight days after the treatment with the adjuvant, the paw volume and pain threshold of each treated foot were measured and the animals were grouped for oral administration of each test compound (0.3 mg/kg) which was performed for nine days on a once-a-day schedule starting at day 9 and ending at day 17 after the treatment. At day 18 after the treatment, the paw volume and pain threshold of each […] foot were measured.
The anti-inflammatory effect of the test compound was confirmed using the percent paw edema suppression as an indicator. Percent paw edema suppression (%)=[(paw volume change in the control group−paw volume in each treatment group)/(paw volume change in the control group−paw volume change in the non-treatment group)]×100
As for the analgesic effect, the animals in the test compound group that had nociceptive thresholds greater than [(the mean nociceptive threshold of the control group)+2×standard deviation] were found “effective animals” and the percent effectiveness of each compound was calculated.

[4] = system: Monoiodoacetic Acid Induced Joint Pain in Rats; assay: Analgesic effect on monoiodoacetic acid induced joint pain in rats; format: in vivo, rat; settings: SD male rats, oral 10 mg/kg three days after MIA treatment, measured two hours later with incapacitance tester
Method: Test for Evaluating Analgesic Effect on Monoiodoacetic Acid Induced Joint Pain in Rats
The animals were SD male rats (6 week-old). The right knee of each animal was treated intraarticularly with monoiodoacetic acid (MIA) to induce joint pain. Three days after the MIA treatment, a test compound (10 mg/kg) was administered orally and two hours later, the loads on the right and left hind legs were measured with an incapacitance tester (Linton).

Compound | IC50 (rat EP4 receptor) [nM] | Percent paw edema suppression [1] [%] | responders at 10 mg/kg [2] [%] | Percent paw edema suppression [3] [%] | Percent Effectiveness [3] [%] | suppression of right knee joint pain (ratio between the loads on the right and left hind legs) [4]
COC(C)(C)C#Cc1nc(Cl)n(Cc2ccc(C(F)(F)F)cc2)c1C(=O)NC[C@H]1CC[C@H](C(=O)O)CC1 [Compound 10, trans-4-({2-Chloro-4-(3-methoxy-3-methyl-1-butyn-1-yl)-1-[4-(trifluormethyl)benzyl]-1H-imidazole-5-carboxamido}methyl)cyclohexanecarboxylic acid] | 10.9 | 26 | 100 | 82 | 78 | suppression of right knee joint pain was confirmed
COC(C)(C)C#Cc1nc(Cl)n(CCOc2ccc(Cl)cc2)c1C(=O)NCC1CCC(C(=O)O)CC1 (stereo not drawn) [Compound 40] | 9.5 | 29 | 100 |  |  | 
COC(C)(C)C#Cc1nc(Cl)n(Cc2ccc(C(F)(F)F)cc2)c1C(=O)NC1(c2ccc(C(=O)O)cc2)CC1 [Compound 42, 4-(1-{2-Chloro-4-(3-methoxy-3-methyl-1-butyn-1-yl)-1-[4-(trifluoromethyl)benzyl]-1H-imidazole-5-carboxamido}cyclopropyl)benzoic acid] | 1.7 | 28 | 83 | 88 | 90 | suppression of right knee joint pain was confirmed
COC(C)(C)C#Cc1nc(C2CC2)n(CCOc2ccc(Cl)cc2)c1C(=O)NCc1ccc(C(=O)O)cc1 [Compound 47, 4-({1-[2-(4-Chlorophenoxy)ethyl]-2-cyclopropyl-4-(3-methoxy-3-methyl-1-butyn-1-yl)-1H-imidazole-5-carboxamido}methyl)benzoic acid] | 34.7 | 26 | 67 |  |  | 

Further compounds by falling IC50 (rat EP4 receptor), results first:

IC50 (rat EP4 receptor) [nM] | Compound | Percent paw edema suppression [1] [%] | responders at 10 mg/kg [2] [%] | Percent paw edema suppression [3] [%] | Percent Effectiveness [3] [%] | suppression of right knee joint pain (ratio between the loads on the right and left hind legs) [4]
35 | CC(C)(O)C#Cc1nc(Cl)n(CCOc2ccc(Cl)cc2)c1C(=O)NCC1CCC(C(=O)O)CC1 (stereo not drawn) [Compound 39] | 22 | 100 |  |  | 
11.8 | COC(C)(C)C#Cc1nc(Cl)n(Cc2ccc(C)cc2)c1C(=O)NC[C@H]1CC[C@H](C(=O)O)CC1 [Compound 22, trans-4-{[2-Chloro-4-(3-methoxy-3-methyl-1-butyn-1-yl)-1-(4-methylbenzyl)-1H-imidazole-5-carboxamido]methyl}cyclohexanecarboxylic acid] | 19 | 83 | 90 | 60 | suppression of right knee joint pain was confirmed
